# From the METLIN SMRT retention time set (Domingo-Almenara et al. 2019)
# Assay: gradient 5% acetonitrile 3 min, to 50% in 2 min, to 85% in 15 min, held 3 min, 100 µL/min
# Settings: column: Zorbax Extend-C18 2.1 x 50 mm; eluents: water / acetonitrile, 0.1% formic acid
# Method in brief: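 A Zorbax Extend-C18 column (2.1 × 50 mm, 1.8 μm) run at 100 μL/min with water and acetonitrile, both containing 0.1% formic acid, separated mixtures of ~100 pure standards. The HPLC was coupled to a quadrupole time-of-flight mass spectrometer operated in positive and negative ionization mode, with dead and dwell volumes of 40 μL and 900 μL. Each retention time was taken from a computationally picked adduct peak that was then manually inspected.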
structure (smiles),measurement,value
CC(C)CN(Cc1cccnc1)C1CN(S(=O)(=O)c2cn(C)cn2)C1,RP-LC retention time,591 s
Cc1ccc(S(=O)(=O)N2CCc3c(c(-c4nnc(-c5ccc(F)cc5)o4)nn3C)C2)cc1,RP-LC retention time,971 s
COc1ccc(OCC(=O)Nc2ccc3c(c2)CCCN3C(=O)C2CC2)cc1,RP-LC retention time,852 s
CN1CC[C@@H](c2ccc(F)cc2)[C@H](COc2ccc3c(c2)OCO3)C1,RP-LC retention time,766 s
CC1CCN(C(=O)c2ccc(OCC3CCN(C(=O)c4ccc(C#N)cc4)CC3)cc2)CC1,RP-LC retention time,957 s
O=C(Cn1c(=O)c2nncn2c2ncccc21)N1CCN(c2ccc(Cl)cc2)CC1,RP-LC retention time,744 s
O=C([C@@H]1C[C@H](F)CN1C(=O)c1ccccc1F)N1CCCCC1,RP-LC retention time,677 s
Cc1ccc(-c2ccc(=O)n(C(C)C(=O)O)n2)cc1 (configuration not stated),RP-LC retention time,684 s
O=C(NC1CC1)c1nc(C(=O)N2CCN(c3ccccc3Cl)CC2)cs1,RP-LC retention time,881 s
Cc1ccc(-c2cc(C(F)(F)F)n3nc(C(=O)O)cc3n2)cc1,RP-LC retention time,943 s
COC(=O)c1nc(NC(=O)Cn2nc3c(cc2=O)CCCC3)sc1-c1ccccc1,RP-LC retention time,827 s
COc1ccc(NC(=O)Cn2nc3c(Oc4ccc(Cl)cc4)nccn3c2=O)cc1,RP-LC retention time,832 s
COCCC(=O)Nc1c(-c2ccccc2)nc2sc(N3CCCCC3)nn12,RP-LC retention time,751 s
Cc1cc(-c2ncc(CC(=O)Nc3ccc(-c4cnccn4)cn3)cc2C)ccn1,RP-LC retention time,652 s
Cc1c(Cl)cccc1Nc1c(-c2ccc(N(C)C)cc2)nc2cnccn12,RP-LC retention time,961 s
Cn1nc(-c2nnc(-c3ccccc3F)o2)c2c1CCN(S(=O)(=O)c1ccccc1Cl)C2,RP-LC retention time,928 s
Cc1ccc(-n2nc3c(N4CCCC(C(=O)NCc5ccc(Cl)cc5)C4)nnc(C)c3c2C)cc1 (configuration not stated),RP-LC retention time,789 s
CC(=O)N1CCCc2cc(S(=O)(=O)N3CCC(C(=O)N4CCN(C)CC4)CC3)ccc21,RP-LC retention time,624 s
COc1cccc(CNC(=O)N2CCN(Cc3nc4ccccc4o3)CC2)c1,RP-LC retention time,654 s
Cc1ccc(NC(=O)N2CCCC2c2nc(-c3ccccc3)no2)cc1C (configuration not stated),RP-LC retention time,1030 s
COc1ccc(-n2cc(C(=O)OCc3cc(=O)n4ccccc4n3)c3ccccc3c2=O)cc1,RP-LC retention time,861 s
CCc1nc2ccccc2c(=O)n1Cc1noc(C2CC(=O)N(c3ccccc3)C2)n1 (configuration not stated),RP-LC retention time,823 s
CCOC(=O)Cc1csc(NS(=O)(=O)c2cn(C)nc2C)n1,RP-LC retention time,592 s
CCc1cc(=O)n(CC(=O)N2CCCc3ccccc32)c(-n2nc(C)cc2C)n1,RP-LC retention time,993 s
CCCC(=O)NC(C)c1nc(-c2ccccc2)no1 (configuration not stated),RP-LC retention time,782 s
CC(C)=CCC/C(C)=C/CNCCNC1C2CC3CC(C2)CC1C3 (configuration not stated),RP-LC retention time,624 s
CN1C(=O)COc2ccc(-c3csc(NC(=O)c4ccc(F)cc4)n3)cc21,RP-LC retention time,952 s
CCc1cc(=O)n(CC(=O)Nc2cccc(C(C)C)c2)c(N2CCOCC2)n1,RP-LC retention time,829 s
O=C(Nc1cnc(-c2ccccc2)nc1)c1ccc(F)c(F)c1,RP-LC retention time,1030 s
CCCC(=O)N1CCCC1COc1ccc(C(=O)N2CCCC2)cc1 (configuration not stated),RP-LC retention time,600 s
CC(NC(=O)C1CCN(Cc2cn(C)c3ccc(Cl)cc23)CC1)c1ccccc1 (configuration not stated),RP-LC retention time,727 s
O=C(c1cc(-c2ccncc2)n[nH]1)N1CCCC(C(=O)N2CCN(C(=O)c3ccco3)CC2)C1 (configuration not stated),RP-LC retention time,556 s
CCn1cc(CN2CCC(C(=O)NC3CCCc4ccccc43)CC2)c2cc(OC)ccc21 (configuration not stated),RP-LC retention time,760 s
O=C(NCc1ccc(Cl)cc1)C1CC(=O)N(c2n[nH]c3cccc(F)c23)C1 (configuration not stated),RP-LC retention time,833 s
O=C(c1cccc(Cl)c1)N1CCC2(CC1)N=C(c1cccc(Br)c1)NO2,RP-LC retention time,970 s
CC(O)(CNC(=O)c1cccc(C(F)(F)F)c1)c1ccccc1 (configuration not stated),RP-LC retention time,808 s
CCOC(=O)c1noc2nc(C)nc(NCC3CCN(Cc4ccc(F)cc4)CC3)c12,RP-LC retention time,666 s
COc1cc(C(=O)Nc2nc(-c3ccc(Cl)cc3)cs2)cc(OC)c1OC,RP-LC retention time,1120 s
CCOc1nc2ccccc2nc1N1CCCC(C(=O)Nc2ccc(Br)cc2)C1 (configuration not stated),RP-LC retention time,1340 s
CN(C)c1ccc(-c2nc3cnccn3c2Nc2ccc(Cl)cc2)cc1,RP-LC retention time,880 s
COc1ccc(CN2CC3(CCN(S(=O)(=O)c4cn(C)cn4)CC3)C2=O)cc1,RP-LC retention time,688 s
Cc1ccc(-c2noc(C3CC(=O)N(c4ccccc4Cl)C3)n2)cc1 (configuration not stated),RP-LC retention time,1010 s
COCCCNC(=O)C1CCN(c2ncccc2S(=O)(=O)N2CCCCC2)CC1,RP-LC retention time,728 s
CCNC(=O)c1sc2nc(-c3ccc(F)cc3)c(NCCOC)n2c1C,RP-LC retention time,777 s
O=C(Nc1ccc2c(c1)OCCO2)c1cccc(N2CCNC(c3ccccc3)C2)n1 (configuration not stated),RP-LC retention time,668 s
O=C1CCCc2cc(S(=O)(=O)N3CCC(C(=O)NCCc4ccc(Cl)cc4)CC3)ccc2N1,RP-LC retention time,776 s
CCc1ccc(S(=O)(=O)N2C[C@@H](F)C[C@H]2C(=O)N2CCc3ccccc3C2)cc1,RP-LC retention time,998 s
CCc1ccc(N2C(=O)C3N=NN(Cc4nc(-c5cccc(Br)c5)no4)C3C2=O)cc1 (configuration not stated),RP-LC retention time,1120 s
CCC1(C(=O)Nc2ccc(OC)cc2)CCCCC(=O)N1 (configuration not stated),RP-LC retention time,666 s
O=C(CN1CCN(c2nccn2-c2ccccc2F)CC1)Nc1ccc(F)cc1F,RP-LC retention time,562 s
O=C1CC[C@]2(C(=O)N3CCCCC3)CCCC[C@H]2N1CCc1ccccc1,RP-LC retention time,878 s
O=C(Cn1ccnc1-c1ccnc(N2CCCC2)c1)NCc1ccccc1Cl,RP-LC retention time,606 s
CN(CC1CCOC1)C(=O)Nc1ccccc1 (configuration not stated),RP-LC retention time,653 s
CCCC(=O)Nc1cc2c(cc1S(=O)(=O)c1ccc(F)cc1)n(C)c(=O)n2C,RP-LC retention time,767 s
COc1ccc(OC)c(NC(=O)N2CCC(C)(C(=O)NCc3ccc4c(c3)OCO4)CC2)c1,RP-LC retention time,806 s
O=C(Nc1cc(F)c(F)c(F)c1)N1CCc2nc[nH]c2C1,RP-LC retention time,614 s
Cc1cccc(NC(=O)C2CCCN(S(=O)(=O)c3c[nH]c(C(=O)N4CCCCCC4)c3)C2)c1 (configuration not stated),RP-LC retention time,922 s
CC(C)c1ccc(NC(=O)C2CCN(C(=O)C3Sc4ccccc4NC3=O)CC2)cc1 (configuration not stated),RP-LC retention time,872 s
COc1nn(C)cc1C(=O)Nc1nnc(-c2sc(C)nc2C)o1,RP-LC retention time,598 s
Cc1nc(C)c(C(=O)Nc2ccccc2NC(=O)c2ccccn2)s1,RP-LC retention time,691 s
O=S(=O)(c1ccc2nncn2c1)N(Cc1cc(F)cc(F)c1)c1ccccc1,RP-LC retention time,861 s
CCc1nc2onc(C)c2c(=O)n1CC(=O)NC1CCCc2ccccc21 (configuration not stated),RP-LC retention time,892 s
CCOC(=O)C1CCC(CNC(=O)Nc2ccc(-c3nc(-c4cc(C)ccc4C)co3)cc2)CC1 (configuration not stated),RP-LC retention time,1260 s
CC(=O)N1CCCc2cc(S(=O)(=O)CCC(=O)Nc3cc(C)ccc3C)ccc21,RP-LC retention time,758 s
CCCOc1nc2ccccc2nc1N1CCCC(C(=O)N2CCN(c3ccccc3F)CC2)C1 (configuration not stated),RP-LC retention time,1380 s
Cc1nn(-c2ccccc2)c(C)c1S(=O)(=O)N1CCC(C(=O)N2CCOCC2)CC1,RP-LC retention time,740 s
O=C(c1cc(-c2cccnc2)n[nH]1)N1CCN(C(=O)c2cccc3[nH]ccc23)CC1,RP-LC retention time,598 s
CCN(CC)CCCNC(=O)c1cc(C)nc2ccc(Br)cc12,RP-LC retention time,585 s
Cc1ccc(N2CC(C(=O)N3CCC(NS(=O)(=O)c4ccccc4)CC3)CC2=O)cc1C (configuration not stated),RP-LC retention time,800 s
Cc1ccc(NC(=O)c2nc(C(C)C)oc2C)cc1F,RP-LC retention time,1140 s
CC1CCCN(Cc2nc(Cn3ccn4nc(-c5ccc(F)cc5)cc4c3=O)no2)C1 (configuration not stated),RP-LC retention time,687 s
CCn1cc(C(=O)Nc2ccc(Cl)cc2)c2cccnc21,RP-LC retention time,931 s
CCOc1ccc(S(=O)(=O)NC2CCN(c3ccc(=O)n(CC4CC4)n3)C2)cc1 (configuration not stated),RP-LC retention time,834 s
Cn1c(=O)c(N2CCC(NC(=O)Nc3cccc(Br)c3)CC2)nc2ccccc21,RP-LC retention time,965 s
O=C(Nc1ccc(OCc2nnc(-c3ccccc3)o2)cc1)c1ccsc1,RP-LC retention time,864 s
O=C(COc1ccccc1)N1CC(F)(F)C[C@H]1c1nnc(C2CC2)o1,RP-LC retention time,768 s
Cc1ccc(Oc2cccc(C(N)=O)c2)nn1,RP-LC retention time,559 s
COc1ccc(-c2ncc3c(n2)CCN(S(=O)(=O)c2cccc4cccnc24)C3)cc1,RP-LC retention time,935 s
O=C(C1CCN(c2cnc(N3CCOCC3)nc2)CC1)N1CCCCCC1,RP-LC retention time,684 s
COc1ccc(-c2csc(NC(=O)Nc3ccc(Cl)c(Cl)c3)n2)cc1Br,RP-LC retention time,1280 s
Cc1ccc(CNC(=O)C(=O)NCC(c2ccc3c(c2)CCCN3C)N2CCCC2)cc1 (configuration not stated),RP-LC retention time,746 s
O=C(CSCc1ccccc1)Nc1c(-c2ccc(F)cc2)nc2ccccn12,RP-LC retention time,714 s
CCn1ccc(-c2nc(-c3ccc4c(c3)ncn4CCC(=O)N3CCCC3)no2)n1,RP-LC retention time,642 s
Cn1nc(CN(C(=O)c2ccccc2F)c2ccccc2)c2c1CCN(S(C)(=O)=O)C2,RP-LC retention time,779 s
O=C(c1ccc(F)c(F)c1)N1CCN(c2cc(-c3ccc(Cl)cc3)[nH]n2)CC1,RP-LC retention time,900 s
Cc1nc(N2CCOCC2)c2c(C(=O)N3CCN(c4cc(Cl)ccc4C)CC3)c(C)oc2n1,RP-LC retention time,983 s
Fc1ccc(OCc2nc(-c3cccc(-c4csc(C5CC5)n4)c3)no2)cc1,RP-LC retention time,1290 s
